Common to all, as to assay type: cell-based
Experiment [1] deals with Leishmania donovani axenic amastigote. In words: In vitro assay for growth inhibition of Leishmania donovani axenic amastigote (Cell TiterGlo luminescence). The settings on record: Leishmania donovani, L. donovani axenic amastigotes in vitro; read-out: L. donovani amastigotes EC50. An outline of the steps:
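Compound-treated wells received 9600 axenic amastigotes in RPMI 1640-based medium at pH 5.5 (37 °C, 5% CO2). Growth measured as ATP luminescence (CellTiter-Glo) after 2-day incubation; DMSO and reference compounds served as controls.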
For orientation: In ATP-based viability assays light output follows the ATP content of the culture.

Experiment [2] has as its system L. donovani HU3 strain in mouse peritoneal macrophages. The experiment in a line: Assay for inhibition of parasitemia of Leishmania donovani in mouse macrophages (SYBR Green nuclei count, high-content imaging). The note with it: Leishmania donovani, Peritoneal macrophage, L. donovani in mouse peritoneal macrophages; read-out: L. donovani in Mouse Macrophages EC50. An outline of the steps:
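Parasite numbers were counted from SYBR Green-stained nuclei imaged by high-content microscopy after paraformaldehyde fixation and Triton permeabilization. Before this, compound was applied for 5 days at 37° C to BALB/c peritoneal macrophages (2×10^4/well) that had been exposed 24 h to 4×10^5 L. donovani HU3 amastigotes harvested from infected mouse spleens.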

Experiment [3] has as its system Trypanosoma cruzi amastigotes cultured in 3T3 fibroblast cells. In words: Assay for growth inhibition of kinetoplastid parasite Trypanosoma cruzi (beta-galactosidase Tulahuen strain, CPRG readout). The settings on record: Trypanosoma cruzi, Fibroblast, T. cruzi amastigotes in 3T3 fibroblast cells; read-out: Buckner infectious T. cruzi EC50. Summed up:
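3T3 fibroblasts (1,000 cells/well) plated overnight, treated with compound in DMSO, then infected with 10,000 Lac-Z-expressing Tulahuen trypomastigotes. After 6 days, 0.6 mM CPRG with 0.6% NP-40 added for 2 h at room temperature; absorbance gives relative intracellular amastigote numbers. Benznidazole and nifurtimox serve as positive controls.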

In experiment [4] the test system is Trypanosoma brucei brucei (Lister 427) strain. The experiment in a line: Assay for growth inhibition against Trypanosoma brucei brucei (Cell TiterGlo ATP luminescence). The settings on record: Trypanosoma brucei, T. brucei brucei (Lister 427); read-out: T. Brucei (HAT) EC50. An outline of the steps: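 Growth read-out is cellular ATP by CellTiter-Glo luminescence, measured 30 min after reagent addition, following 2-day incubation at 37 °C in CO2. Parasites (10,000/mL, HMI-9 plus 10% FBS and 10% serum plus) faced 10 threefold dilutions in duplicate; IC50 taken as 50% growth inhibition versus untreated.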

The EC50 is the concentration that produces a half-maximal response. `O=C(Nc1ccnc(-n2cc3cc(-c4ccccn4)cnc3n2)c1)N1CCC1` [Compound 341, N-{2-[5-(pyridin-2-yl)-2H-pyrazolo[3,4-b]pyridin-2-yl]pyridin-4-yl}azetidine-1-carboxamide]: the EC50 in experiment [1] is 6 nM; in experiment [2] it was 33 nM; in experiment [3], 10 nM; in experiment [4], 9 nM.
The matching figures for `O=C(Nc1ccnc(-n2cc3cc(-c4ccccn4)cnc3n2)c1)N1CC(F)C1` [Compound 342, 3-fluoro-N-{2-[5-(pyridin-2-yl)-2H-pyrazolo[3,4-b]pyridin-2-yl]pyridin-4-yl}azetidine-1-carboxamide]: 7 nM, 24 nM, 17 nM and 10 nM.
The matching figures for `O=C(Nc1cccc(-n2cc3cc(N4CC(F)(F)C4)cnc3n2)c1)N1CCC1` [Compound 343, N-{3-[5-(3,3-difluoroazetidin-1-yl)-2H-pyrazolo[3,4-b]pyridin-2-yl]phenyl}azetidine-1-carboxamide]: 10 nM, 32 nM, 14 nM and 9 nM.
Taken in the same sequence, the figures for `O=C(Nc1cccc(-n2cc3cc(-c4ccccn4)cnc3n2)c1)N1CCC1` [Compound 344, N-{3-[5-(pyridin-2-yl)-2H-pyrazolo[3,4-b]pyridin-2-yl]phenyl}azetidine-1-carboxamide] were 2 nM, 5 nM, 3 nM and 1 nM.
Consider `O=C(Nc1ccc(F)c(-n2cc3cc(-c4ccccn4)cnc3n2)c1)c1cnccn1` [Compound 345, N-{4-fluoro-3-[5-(pyridin-2-yl)-2H-pyrazolo[3,4-b]pyridin-2-yl]phenyl}pyrazine-2-carboxamide], for which the EC50 in experiment [1] worked out at 11 nM; in experiment [2] it was 33 nM; in experiment [3], 4 nM; in experiment [4] it was 5 nM.
The matching figures for `O=C(Nc1ccc(F)c(-n2cc3cc(-c4ccccn4)cnc3n2)c1)C1CC12CC2` (stereo not shown) [Compound 346, N-{4-fluoro-3-[5-(pyridin-2-yl)-2H-pyrazolo[3,4-b]pyridin-2-yl]phenyl}spiro[2.2]pentane-1-carboxamide]: 239 nM, 155 nM, 34 nM and 41 nM.
Consider `CC1(C)C=C(C(=O)Nc2ccc(F)c(-n3cc4cc(-c5ccccn5)cnc4n3)c2)C1` [Compound 347, N-{4-fluoro-3-[5-(pyridin-2-yl)-2H-pyrazolo[3,4-b]pyridin-2-yl]phenyl}-3,3-dimethylcyclobut-1-ene-1-carboxamide], for which the EC50 in experiment [1] stood at 7 nM; in experiment [2], 15 nM; in experiment [3], 2 nM; in experiment [4], 7 nM.
Consider `N#CC1(C(=O)Nc2ccc(F)c(-n3cc4cc(-c5ccccn5)cnc4n3)c2)CC1` [Compound 348, 1-cyano-N-{4-fluoro-3-[5-(pyridin-2-yl)-2H-pyrazolo[3,4-b]pyridin-2-yl]phenyl}cyclopropane-1-carboxamide], for which the EC50 in experiment [1] was 347 nM; in experiment [2] it was 963 nM; in experiment [3], 142 nM; in experiment [4], 112 nM.
`Cc1cccnc1-c1cnc2nn(-c3cc(NC(=O)C4=CC(C)(C)C4)ccc3F)cc2c1` [Compound 350, N-{4-fluoro-3-[5-(3-methylpyridin-2-yl)-2H-pyrazolo[3,4-b]pyridin-2-yl]phenyl}-3,3-dimethylcyclobut-1-ene-1-carboxamide]: the EC50 in experiment [1] is 16 nM; in experiment [2], 58 nM; in experiment [3], 16 nM; in experiment [4] it was 28 nM.
As for `Cc1nc(C)c(C(=O)Nc2ccc(F)c(-n3cc4cc(C(C)C)cnc4n3)c2)o1` [Compound 351, N-(4-fluoro-3-(5-isopropyl-2H-pyrazolo[3,4-b]pyridin-2-yl)phenyl)-2,4-dimethyloxazole-5-carboxamide], the EC50 is 49 nM in experiment [1], 24 nM in experiment [2], 15 nM in experiment [3] and 31 nM in experiment [4].
